In patent US20230348622A1, “USE OF LANCL1 AND ANTIBODIES THEREOF AS A DIAGNOSTIC AND THERAPEUTIC TARGET FOR THE MANAGEMENT AND TREATMENT OF CANCER” (The University of Hong Kong, priority 2022, published 2023) one finds ROS levels data, which are given here for one compound.

Molecules are shown by their SMILES.

For the test, the system named is PLC/PRF/5 and MHCC-97L cells. As to the kind of experiment: Intracellular ROS level in LANCL1-KD HCC cells. To be noted: addition of oxidizing agent. Type of test: cell-based, human.

`CC(C)(C)OO` [TBHP, tert-Butyl hydroperoxide]: the ROS levels result was “significantly increased”.
